Source: article PMC9551036, “A selective and orally bioavailable VHL-recruiting PROTAC achieves SMARCA2 degradation in vivo” (Nature Communications, 2022)
Where “and” joins values, the source holds several entries; their conditions need not be identical. Equal entries are not always repeated. Where two headings read alike, the source gives them in different places.

Legend:
SMARCA4 [1] = target: T1, SMARCA4 (Homo sapiens, UniProt P51532); experiment: SMARCA4 capillary electrophoresis protein assay in RKO cells; format: cell-based; set-up: endogenous in cells; host or cells: RKO, HCT116, LU99, HCC-364, HCT-15, HCC4006, SK-N-AS
Experimental: 130,000–200,000 cells were seeded in 24-well plates and incubated until settled down or overnight. Compounds were dissolved in DMSO and added to cells in indicated concentrations using a digital dispenser following an optional media change. Cells were incubated for 4 or 18 h as indicated. For SMARCA2/4 half-life determination, 150,000 or 200,000 cells were seeded in 24-well plates. The next day, 50 µg/ml cycloheximide (Sigma) was added and cells were incubated for 1–24 h. For SMARCA2/4 re-synthesis measurements, 200,000 cells were seeded in 24-well plates. The next day, 100 nM compound 6 was added for 4 h to degrade SMARCA2/4, and a sample was taken as baseline for normalisation. To allow re-synthesis, a VHL binder (compound 32, 25 or 50 µM) was then added for 3 or 24 h. Medium was removed, cells were washed with PBS and lysed with 80 µl Lysis Buffer (MSD Tris Lysis Buffer (#R60TX-2) + Halt Inhibitor Cocktail (100x) + Benzonase 0.5 µL/ml). Samples were frozen at −80 °C and thawed at room temperature before use. Samples were transferred to a V-bottom plate and insoluble debris was pelleted by centrifugation for 5 min at maximum speed. The supernatant was transferred to a fresh plate. Master Mix and Ladder were prepared according to manufacturer’s instructions for 12–230 kDa Wes Separation Module, 8 × 25 capillary cartridges, Protein Simple #SM-W004 with Anti-Rabbit Detection Module for Wes, Peggy Sue or Sally Sue, Protein Simple #DM-001. 4.8 µl lysate were mixed with 1.2 µl Master Mix to achieve a protein concentration of ~0.5 µg/µl. Antibodies were diluted in Antibody Diluent II (SMARCA2 Sigma #HPA029981 RRID:AB_10602406 1:25–100, SMARCA4 Cell Signalling #49360 clone D1Q7F RRID:AB_2728743 1:15–120 or Abcam #ab110641 clone EPNCIR111A RRID:AB_10861578 1:60, GAPDH Abcam #ab9485 RRID:AB_307275 1:250). Wes plates were prepared and run according to manufacturer’s instructions. Proteins were quantified with accompanying Compass Software. SMARCA2/4 protein levels were normalised to GAPDH. […] Where applicable, curves were fitted using a 4-parametric logistic model.

[2] = target: VCB: PROTAC: SMARCA2^BD ternary complex (Homo sapiens, UniProt P40337+P51531); experiment: TR-FRET ternary complex affinity and cooperativity, SMARCA2; format: binding; set-up: P51531-2, residues 1373-1493 with additional N-terminal SM residues; GST (TEV site) (N); His6 (TEV site) (N, cleaved yes); made in house; host or cells: SMARCA2^BD: Escherichia coli BL21(DE3)
PBRM1BD5 = target: T2, PBRM1BD5 (Homo sapiens, UniProt Q86U86); experiment: TR-FRET ternary complex affinity and cooperativity, PBRM1; format: binding
T2 construct: GST (TEV site) (N); His6 (TEV site) (N, cleaved yes); made in house; host or cells: PBRM1^BD5: Escherichia coli BL21(DE3)

[3] = target: T3, VCB: PROTAC: SMARCA2^BD ternary complex (Homo sapiens, UniProt P51531); experiment: TR-FRET ternary complex affinity and cooperativity, SMARCA2; format: binding
T3 construct: P51531-2, residues 1373-1493 with additional N-terminal SM residues; GST (TEV site) (N); His6 (TEV site) (N, cleaved yes); made in house; host or cells: SMARCA2^BD: Escherichia coli BL21(DE3)

PBRM1 BD = target: T4, PBRM1 BD (Homo sapiens, UniProt Q86U86); experiment: TR-FRET binary and ternary (PROTAC + VCB) affinity, PBRM1 bromodomain; format: binding; conditions: individual replicates
T4 construct: GST (TEV site) (N); made in house; host or cells: Escherichia coli BL21(DE3)

SMARCA4 [4] = target: T1, SMARCA4; experiment: Imaging-based SMARCA4 protein assay in RKO cells; format: cell-based; set-up: endogenous in cells; host or cells: RKO, HCT116, LU99, HCC-364, HCT-15, HCC4006, SK-N-AS; conditions: individual replicates
Experimental: 1250 cells per well in 60 µl medium were plated in flat bottom, poly-lysin coated 384-well plates (CellCarrier Ultra, Perkin Elmer). The next day, test compounds (10 µl of serial dilutions) and DMSO controls were diluted in DMEM medium such that the final DMSO content was <1% or were added using an ultrasound dispensing system. 4 wells were reserved for a background measurement. […] After aspirating the fixing solution, the cells were washed once with 25 µl PBS. 25 µl of blocking buffer (10% goat serum in PBS) was added and cells were incubated for 30 min, then washed once with PBS. Cells were stained with 20 µl of SMARCA2/4 primary antibody solution (Sigma #HPA029981 RRID:AB_10602406 1:1000 or Cell Signalling #52251 clone E9O6 RRID:AB_2799410 1:1000 in PBS with 10% FCS) for 2–4 h at room temperature. Cells were again washed once with PBS. […] The cell layer was then washed once with 25 µl PBS, the wells were filled with 25 µl PBS and the plates were sealed with an adhesive sheet. They were then imaged on the Opera Phoenix (mean intensity in the nucleus). Results were computed as percent of controls ((value of test compound − background)/(value of the negative control DMSO—background) multiplied by 100). EC50 values were computed using a 4-parametric logistic model.

[5] = PROTAC + VCB, individual replicates, read-out: Ternary SMARCA2 BD EC50 (PROTAC + VCB)
[6] = TR-FRET competition for SMARCA2BD, + VCB, mean ± SD, read-out: TR-FRET Ternary SMARCA2BD EC50 (PROTAC + VCB)
[7] = TR-FRET competition for SMARCA2BD, without VCB, mean ± SD, read-out: TR-FRET SMARCA2BD EC50
[8] = binary, PROTAC alone, individual replicates, read-out: SMARCA2 BD EC50
[9] = PBRM1 EC50, binary, PROTAC alone
[10] = Ternary PBRM1 BD EC50 (PROTAC + VCB), PROTAC + VCB
[11] = 18h, read-out: RKO (18h) SMARCA4 DC50
[12] = TR-FRET competition for PBRM1BD5, without VCB, mean ± SD, read-out: TR-FRET PBRM1BD EC50
[13] = PROTAC + VCB, read-out: Ternary PBRM1 BD EC50 (PROTAC + VCB)
[14] = binary, PROTAC alone, read-out: PBRM1 EC50
[15] = 4h, read-out: RKO (4h) SMARCA4 DC50

T1 sequence (P51532 whole entry): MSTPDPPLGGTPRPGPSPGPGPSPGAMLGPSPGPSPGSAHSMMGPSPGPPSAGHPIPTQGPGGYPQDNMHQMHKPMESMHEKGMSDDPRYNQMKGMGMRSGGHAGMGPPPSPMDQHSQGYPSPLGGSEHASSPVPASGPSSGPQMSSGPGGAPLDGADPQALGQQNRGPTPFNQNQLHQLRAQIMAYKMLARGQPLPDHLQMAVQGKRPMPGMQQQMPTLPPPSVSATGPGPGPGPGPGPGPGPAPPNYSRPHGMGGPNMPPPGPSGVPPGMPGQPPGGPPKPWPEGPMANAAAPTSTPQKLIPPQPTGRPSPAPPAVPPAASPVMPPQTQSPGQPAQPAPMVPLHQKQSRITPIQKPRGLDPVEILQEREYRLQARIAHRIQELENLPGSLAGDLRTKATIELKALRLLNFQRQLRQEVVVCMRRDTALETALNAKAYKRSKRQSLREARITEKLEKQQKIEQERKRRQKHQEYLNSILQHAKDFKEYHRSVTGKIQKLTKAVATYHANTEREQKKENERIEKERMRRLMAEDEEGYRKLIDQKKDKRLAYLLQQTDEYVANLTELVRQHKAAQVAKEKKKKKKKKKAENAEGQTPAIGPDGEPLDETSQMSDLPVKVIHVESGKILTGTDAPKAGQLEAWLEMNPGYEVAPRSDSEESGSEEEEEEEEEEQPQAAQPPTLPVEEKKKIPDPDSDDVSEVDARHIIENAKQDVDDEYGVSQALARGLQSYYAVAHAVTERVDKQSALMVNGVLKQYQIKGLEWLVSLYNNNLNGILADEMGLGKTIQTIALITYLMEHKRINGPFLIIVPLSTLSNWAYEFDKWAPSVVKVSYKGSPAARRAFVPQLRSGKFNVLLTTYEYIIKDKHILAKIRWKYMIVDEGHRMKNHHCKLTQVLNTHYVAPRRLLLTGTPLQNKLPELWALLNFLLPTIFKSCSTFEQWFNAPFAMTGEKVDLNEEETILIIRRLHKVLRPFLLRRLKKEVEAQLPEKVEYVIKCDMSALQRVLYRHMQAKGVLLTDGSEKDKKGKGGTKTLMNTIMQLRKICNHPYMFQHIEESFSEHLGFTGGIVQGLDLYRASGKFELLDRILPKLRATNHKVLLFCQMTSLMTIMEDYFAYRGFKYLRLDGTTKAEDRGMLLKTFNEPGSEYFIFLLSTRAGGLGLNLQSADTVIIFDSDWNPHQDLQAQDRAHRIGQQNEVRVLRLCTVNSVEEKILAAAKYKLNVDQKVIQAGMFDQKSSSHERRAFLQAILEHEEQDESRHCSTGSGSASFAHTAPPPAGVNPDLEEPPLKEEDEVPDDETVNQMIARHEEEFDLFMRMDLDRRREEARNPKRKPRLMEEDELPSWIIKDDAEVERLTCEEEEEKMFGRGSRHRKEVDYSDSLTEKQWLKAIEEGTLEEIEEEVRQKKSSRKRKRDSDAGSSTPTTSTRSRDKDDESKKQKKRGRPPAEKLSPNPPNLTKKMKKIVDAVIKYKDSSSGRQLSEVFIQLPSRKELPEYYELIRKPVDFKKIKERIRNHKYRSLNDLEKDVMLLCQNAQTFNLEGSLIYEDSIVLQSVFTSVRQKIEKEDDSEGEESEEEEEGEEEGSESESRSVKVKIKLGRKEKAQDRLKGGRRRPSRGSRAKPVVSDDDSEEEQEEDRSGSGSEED
T3 sequence (P51531 with tags, fused parts or gaps isoform P51531-2): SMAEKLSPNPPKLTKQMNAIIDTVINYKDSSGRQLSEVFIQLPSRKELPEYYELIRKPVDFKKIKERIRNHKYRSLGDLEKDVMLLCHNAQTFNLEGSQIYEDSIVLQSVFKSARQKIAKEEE
VCB: PROTAC: SMARCA2^BD ternary complex (Homo sapiens, UniProt P40337+P51531), sequence (P51531 with tags, fused parts or gaps isoform P51531-2): as above
VCB: PROTAC: SMARCA2^BD ternary complex (Homo sapiens, UniProt P40337+P51531), sequence (P40337 54-213): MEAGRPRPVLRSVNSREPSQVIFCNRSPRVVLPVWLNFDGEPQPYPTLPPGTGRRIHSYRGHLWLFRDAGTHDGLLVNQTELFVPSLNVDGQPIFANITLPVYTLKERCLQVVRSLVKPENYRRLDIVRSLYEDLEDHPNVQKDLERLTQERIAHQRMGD
VCB: PROTAC: SMARCA2^BD ternary complex (Homo sapiens, UniProt P40337+P51531), sequence (Q15369 17-112 partner): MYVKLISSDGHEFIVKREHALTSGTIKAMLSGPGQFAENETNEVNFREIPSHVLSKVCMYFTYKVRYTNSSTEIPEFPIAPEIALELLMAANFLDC
VCB: PROTAC: SMARCA2^BD ternary complex (Homo sapiens, UniProt P40337+P51531), sequence (Q15370 1-104 partner): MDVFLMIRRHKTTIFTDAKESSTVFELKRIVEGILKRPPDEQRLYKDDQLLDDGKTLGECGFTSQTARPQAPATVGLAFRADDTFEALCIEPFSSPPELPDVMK
T2 sequence (Q86U86 645-766): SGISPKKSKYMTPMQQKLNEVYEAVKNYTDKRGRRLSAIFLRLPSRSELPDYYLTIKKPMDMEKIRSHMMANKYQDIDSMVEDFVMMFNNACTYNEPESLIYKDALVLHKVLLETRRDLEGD

| Compound | DC50 (SMARCA4 [1]; RKO (4 h), mean ± SD) | Dmax (SMARCA4 [1]; RKO, RKO (18 h), mean ± SD) | EC50 [2, 5] | EC50 [2, 6] | EC50 (PBRM1BD5) | EC50 [3, 7] | EC50 [3, 8] | EC50 (PBRM1 BD; [9]) | EC50 (PBRM1 BD; [10]) | DC50 (SMARCA4 [4]; [11]) | DC50 (SMARCA4 [1]; RKO (18 h), mean ± SD) | EC50 (PBRM1BD5; [12]) | EC50 (PBRM1 BD; [13]) | EC50 (PBRM1 BD; [14]) | DC50 (SMARCA4 [4]; [15]) | other results |
| --- | --- | --- | --- | --- | --- | --- | --- | --- | --- | --- | --- | --- | --- | --- | --- | --- |
| Cc1ncsc1-c1ccc(C(CCC(C)CCN2CCC(c3ccc4c(c3)n(C3CCCC3)c3nc(=O)c5c(Br)cccc5n43)CC2)NC(=O)C2CC(O)CN2C(=O)C(NC(=O)C2(F)CC2)C(C)(C)C)cc1 (stereo not drawn) [ACBI2] | > 25000 nM | 67 ± 8% | 40 nM and 41.1 nM and 43.2 nM and 39.8 nM and 44 nM | 42 ± 2 nM | 67 ± 9 nM | 172 ± 109 nM | 94.6 nM and 127 nM and 166 nM and 204 nM and 373 nM | 59.3 nM and 67.2 nM and 77.7 nM | 3.83 nM and 5.7 nM and 5.49 nM | 37.7 nM and 30.3 nM and 30.7 nM and 30.9 nM and 26.2 nM and 33.5 nM and 25.2 nM and 30.8 nM and 63.4 nM and 30 nM and 29.1 nM and 27.7 nM | – | – | – | – | – | DC50 (SMARCA4 [1]; RKO cells, time not stated at the place (Supplementary Data 2)): 32 nM; Bottom (% protein remaining, four-parameter fit) (SMARCA4 [1]; RKO, SM4): 39.28%; Top (% protein remaining, four-parameter fit) (SMARCA4 [1]; RKO, SM4): 143.4%; % protein remaining (SMARCA4 [1]; RKO, SM4, conc 9.54e-12 mol/l): 113.734% and 126.165%; % protein remaining (SMARCA4 [1]; RKO, SM4, conc 3.81e-11 mol/l): 121.614% and 148.911%; % protein remaining (SMARCA4 [1]; RKO, SM4, conc 1.53e-10 mol/l): 135.787% and 142.842%; % protein remaining (SMARCA4 [1]; RKO, SM4, conc 6.1e-10 mol/l): 143.182% and 145.479%; % protein remaining (SMARCA4 [1]; RKO, SM4, conc 2.44e-9 mol/l): 149.21% and 160.401%; % protein remaining (SMARCA4 [1]; RKO, SM4, conc 9.77e-9 mol/l): 171.8% and 162.178%; % protein remaining (SMARCA4 [1]; RKO, SM4, conc 3.91e-8 mol/l): 85.9345% and 100.013%; % protein remaining (SMARCA4 [1]; RKO, SM4, conc 1.56e-7 mol/l): 33.2702% and 37.8218%; % protein remaining (SMARCA4 [1]; RKO, SM4, conc 6.25e-7 mol/l): 30.6123% and 41.0571%; % protein remaining (SMARCA4 [1]; RKO, SM4, conc 2.5e-6 mol/l): 28.0108%; % protein remaining (SMARCA4 [1]; RKO, SM4, conc 1e-5 mol/l): 64.9119% |
| Cc1ncsc1-c1ccc([C@H](CCCCCN2CCC(c3ccc4c(c3)n(C3CCCC3)c3nc(=O)c5c(Br)cccc5n43)CC2)NC(=O)[C@@H]2C[C@@H](O)CN2C(=O)[C@@H](NC(=O)C2(F)CC2)C(C)(C)C)cc1 [compound 11] | 15 ± 9 nM | 78 ± 11% | 26.6 nM and 19.7 nM and 14.3 nM and 29.6 nM and 31.9 nM and 31.5 nM and 26.3 nM and 35.9 nM and 20.9 nM and 21.5 nM and 24.4 nM | 25 ± 6 nM | – | 123 ± 45 nM | 183 nM and 73.1 nM and 107 nM and > 400 nM and 65.7 nM and 113 nM and 145 nM and 121 nM and 105 nM and 125 nM and 146 nM and 228 nM and 144 nM | – | – | 9.56 nM and 14.6 nM and 11.5 nM and 9.12 nM and 15.1 nM | 12 ± 3 nM | 41 ± 8 nM | 3.17 nM and 4.26 nM and 3.96 nM | 43.1 nM and 50 nM and 41.1 nM and 31.5 nM | 20 nM and 10.1 nM and 26.4 nM and 8.2 nM | Dmax (SMARCA4 [1]; RKO, RKO (4 h), mean ± SD): 53 ± 16% |
| O=c1nc2n(C3CCCC3)c3ccccc3n2c2cccc(Br)c12 [compound 1] | > 25000 nM | – | 381 nM and 365 nM and 425 nM | 389 ± 31 nM | – | 425 ± 11 nM | 413 nM and 429 nM and 435 nM | – | – | > 25000 nM | > 25000 nM | 134 ± 28 nM | 129 nM and 124 nM and 140 nM | 124 nM and 116 nM and 167 nM | > 25000 nM | – |
| CN1CCN(c2nc(=O)c3ccccc3o2)CC1 [compound 14] | > 25000 nM | – | > 10000 nM | – | – | – | > 10000 nM | – | – | > 25000 nM | > 25000 nM | > 10000 nM | > 10000 nM | > 10000 nM | > 25000 nM | – |
| Cc1ncsc1-c1ccc([C@H](CC[C@H](C)CCN2CCC(c3ccc4c(c3)n(C3CCCC3)c3nc(=O)c5c(Br)cccc5n43)CC2)NC(=O)[C@@H]2C[C@H](O)CN2C(=O)[C@@H](NC(=O)C2(F)CC2)C(C)(C)C)cc1 [compound 12] | > 25000 nM | 94 ± 7% | 148 nM and 161 nM and 256 nM and 158 nM | 181 ± 44 nM | 75 ± 6 nM | 203 ± 65 nM | 125 nM and 272 nM and 263 nM and 154 nM | 67.7 nM and 82.1 nM and 74.9 nM | 67.9 nM and 85.8 nM and 79.7 nM | 4950 nM and 4740 nM and 8100 nM and 6070 nM | 5830 nM | – | – | – | > 25000 nM | – |
| CN1CCN(c2nc(=O)c3c(I)cccc3o2)CC1 [compound 16] | > 25000 nM | – | > 10000 nM | – | – | – | > 10000 nM | – | – | > 25000 nM | > 25000 nM | > 10000 nM | > 10000 nM | > 10000 nM | > 25000 nM | – |
